≈ marks a conversion by molar mass, not a printed value.
Key:
[1] = system: E. cloacae; assay type: cell-based; conditions: strain 218S, Parent of 218R1
Protocol: (§1) The minimum inhibitory concentrations of (MIC) of CEME, CEMA and melittin were determined for a number of different bacteria (Table 2). Briefly, cells were grown overnight at 37° C. in LB-S (Luria broth without any salt supplement) and diluted one in 10,000 in the same medium to give concentrations of about 10^4 to 10^5 CFU/ml. The broth dilutions were set up in a 96 well microtiter plate by putting 200 μl of LB-S containing the initial concentration of antibiotic or compound in column 1 and 100 μl of the same medium in columns 2-12. The compounds were diluted by taking 100 μl of broth from column 1 and mixing it with column 2, resulting in a one in two dilution. This was continued to column 10. Finally, 10 μl of bacteria were pipetted into columns 1-11, and the plates incubated overnight at 37° C. The next day the plates were scored for growth in the wells, and the MIC determined.

[2] = system: E. coli; assay type: cell-based; conditions: strain UB1005, Parent of DC2
Protocol: as §1

[3] = system: S. typhimurium; assay type: cell-based; conditions: C590 versus C587
Protocol: as §1

[4] = system: P. aeruginosa H309 Whole Cells; assay type: binding; conditions: 5 mM HEPES pH 7.2, 5 mM KCN; average of at least three trials; read-out: I50 (DPx displacement from whole cells)
[5] = system: E. coli strain DC2; assay: Acid-urea gel overlay antibacterial activity; assay type: cell-based; conditions: 15% acid-urea gel overlaid with agar containing ≈10^5 cells, overnight at 37° C.
Protocol: A sample of the partially purified CEME protein was electrophoresed on a 15% acid-urea gel, which separates proteins based on charge and mass (Panyim and Chalkey, Arch. Biochem Biophys., 130:337, 1969). The pH of the buffer is acidic (≈pH 5.0) and the polarity is reversed such that proteins migrate to the cathode. Therefore, the small cationic peptides run relatively quickly through the gel and thus can be easily identified. Antibacterial activity was tested as previously described (Hultmark, Eur. J. Biochem., 106:7, 1980). The gel was incubated in Mueller Hinton broth+0.2M NaPO4 pH 7.4 for 1 hr. It was overlaid with mls of the same media containing 0.6% agar and≈10^5 E. coli strain DC2, and then again with ml of the same media containing only 0.6% agar. […] Melittin is used as a positive control due to its antibacterial activity and similarity in size and PI values.

[6] = system: P. AERUGINOSA H309; assay: Lysozyme lysis assay (outer membrane permeabilization); assay type: cell-based
Protocol: Membrane permeabilization by polycationic compounds was measured in two different assays. The first assay measured membrane disruption by the ability of lysozyme to reach the periplasm and cause cell lysis. […] The uptake of lysozyme into whole cells due to membrane permeabilization by various compounds was previously described in Hancock, et al., Antimicrobial Agents and Chemo., 19:777, 1981. Overnight cultures of P. aeruginosa H309 or E. cloacae 218R1 grown in LB-S were diluted 1 in 50 in fresh medium and grown to an OD600 =0.5-0.6. The cells were harvested in a Silencer H-103N clinical centrifuge at 1800 g for 10 min, washed once with one volume of assay buffer (5 mM HEPES pH 7.2, 5 mM KCN), and resuspended in the same buffer to an OD600 of 0.5. Assays consisted of 600 μl of cells with 50 μg/ml of chicken egg white lysozyme and varying concentrations of cationic compounds. Cell lysis was measured as a decrease in the OD600 in a Perkin-Elmer dual beam spectrophotometer. Parallel experiments performed without lysozyme enabled the measurement of the lytic activity of the compounds themselves. To test whether or not permeability to lysozyme could be inhibited by divalent cations, various concentrations of MgCl2 were added to the assay after the addition of lysozyme and before the addition of the test compound.

[7] = system: P. AERUGINOSA H309; assay type: cell-based; conditions: 10 μM NPN; fluorescence increase
Description: (§2) The second assay determined membrane permeability by the ability of 1-N-phenylnaphthylamine (NPN), a small fluorescent probe, to insert itself into the membrane. Normally, very little NPN can penetrate the outer membrane, but in the presence of a membrane permeabilizer it can insert into the hydrophobic membrane resulting in an increase in fluorescence (FIGS. 7 and 8). This N-phenylnaphthylamine uptake assay was previously described by Loh, et al., Antimicrobial Agents and Chemo., 26:546, 1984. Cells were prepared exactly the same as for the lysozyme lysis assay. 1-N-phenylnaphthylamine (NPN) was dissolved in acetone at a concentration of 500 μM. NPN fluorescence was measured in a Perkin-Elmer 650-10S fluorescent spectrophotometer using excitation and emission wavelengths set to 350 nm and 420 nm respectively, with slit widths of 5 nm. The assay was standardized by adding 20 μl of NPN (final concentration of 10 μM) and 10 μl of 0.64 mg/ml of polymyxin B (final concentration of 6.4 μg/ml) into 1 ml of cells, and adjusting the resulting fluorescence to read 90% deflection (90 arbitrary units). Various compounds were tested by adding 10 μl of different concentrations to a cuvette containing 1 ml of cells and 10 μM NPN. Permeabilizing activity was designated as the total fluorescence minus the fluorescence due to NPN alone. Following the fluorescence measurement, the OD600 of the cells was taken to ensure no significant cell lysis had occurred.

[8] = system: P. aeruginosa H103 LPS; assay: Dansyl polymyxin (DPx) displacement from purified LPS; assay type: binding; conditions: on a μM basis
Protocol: In this assay, DPx was incubated with LPS to saturate the binding sites and then, while polycationic compounds are titrated into the reaction, displacement of the DPx was monitored by the decrease in fluorescence (FIG. 9).
The method of Moore, et al., (Antimicrobial Agents and Chemo., 29:496, 1987), was used to test how much DPx was needed to saturate the binding sties on LPS. Briefly, 5 μl samples of 100 μM DPx were titrated sequentially into 1 ml of 3 μg/ml of LPS until a maximum fluorescence was reached. The fluorescence was measured in a Perkin-Elmer 650-10S fluorescence spectrophotometer with an excitation wavelength of 340 nm and an emission wavelength of 485 nm using slit widths of 5 nm. […] For the binding inhibition assays (Moore, et al., Antimicrobial Agents and Chemo., 29:496, 1987), 2.5 μM DPx was added to 3 μg/ml of H103 LPS in 5 mM HEPES pH 7.2. The test compounds were added 5 μl at a time and the decrease in fluorescence due to displacement of the DPx from the LPS was recorded.

[9] = MICs of common antibiotics in the presence of sub-MIC levels of cationic peptides; assay type: cell-based; conditions: for MIC of antibiotic: No peptide
Protocol: as §1
The ability of the cationic peptides to work synergystically was examined by determining the MIC values for some commonly used antibiotics in the presence of sub-MIC levels of cationic peptides (Table 4). […] This may be due to the high membrane permeabilizing activity of CEMA (see below). However, the peptides did lower the MIC of polymyxin B, possibly due to the fact that they are all taken up by the same pathway and are therefore aiding each other's uptake. Of interest is the influence that melittin has on the MIC of polymyxin B, given the […] membrane permeabilizing activity of melittin.

[10] = system: P. AERUGINOSA H309; assay type: cell-based; conditions: +80 mM Na+
Protocol: as §1, with “Briefly,” for “The minimum inhibitory concentrations of (MIC) of CEME, CEMA and melittin were determined for a number of different bacteria (Table 2). Briefly,”

[11] = system: E. cloacae 218R1; assay type: cell-based; conditions: 10 μM NPN; fluorescence increase
Description: as §2

| Molecule | MIC [1] | MIC [2] | Sensitivity of defensin sensitive strain C590 relative to parent (MIC change) [3] | IC50 [4] | Antibacterial activity in overlaid gel [5] | Permeabilization of the outer membrane to lysozyme, compared with polymyxin B ([6]; 50 μg/ml lysozyme, decrease in OD600) | Cell lysis in the absence of lysozyme ([6]; increased concentrations of peptide) | Permeabilizer activity relative to gentamicin ([6]; lysozyme lysis assay) | Activity in opening up the membrane to NPN [7] | Affinity for LPS compared with polymyxin B [8] | MIC of antibiotic in the presence of CEMA ([9]; CEMA 0.7 μg/ml) | MIC of antibiotic in the presence of CEMA ([9]; CEMA 1.4 μg/ml) | MIC of antibiotic in the presence of CEME ([9]; CEME 0.6 μg/ml) | MIC of antibiotic in the presence of CEME ([9]; CEME 1.2 μg/ml) | MIC of antibiotic in the presence of Melittin ([9]; Melittin 2 μg/ml) | MIC of antibiotic in the presence of Melittin ([9]; Melittin 4 μg/ml) | MIC of antibiotic [9] | MIC [10] | Activity in opening up the membrane to NPN [11] |
| --- | --- | --- | --- | --- | --- | --- | --- | --- | --- | --- | --- | --- | --- | --- | --- | --- | --- | --- | --- |
| gentamicin | 0.5 µg/mL | 1 µg/mL | two-fold more sensitive | 39.1 ± 9.67 µM |  |  |  |  |  |  |  |  |  |  |  |  |  |  |  |
| CC[C@H](C)[C@H](NC(=O)CN)C(=O)NCC(=O)N[C@@H](C)C(=O)N[C@H](C(=O)N[C@@H](CC(C)C)C(=O)N[C@@H](CCCCN)C(=O)N[C@H](C(=O)N[C@@H](CC(C)C)C(=O)N[C@H](C(=O)N[C@H](C(=O)NCC(=O)N[C@@H](CC(C)C)C(=O)N1CCC[C@H]1C(=O)N[C@@H](C)C(=O)N[C@@H](CC(C)C)C(=O)N[C@H](C(=O)N[C@@H](CO)C(=O)N[C@@H](Cc1c[nH]c2ccccc12)C(=O)N[C@H](C(=O)N[C@@H](CCCCN)C(=O)N[C@@H](CCCNC(=N)N)C(=O)N[C@@H](CCCCN)C(=O)N[C@@H](CCCNC(=N)N)C(=O)N[C@@H](CCC(N)=O)C(=O)N[C@@H](CCC(N)=O)C(N)=O)[C@@H](C)CC)[C@@H](C)CC)[C@@H](C)O)[C@@H](C)O)C(C)C)C(C)C [Melittin, melittin] |  |  | two-fold more sensitive |  | zones of clearing | did not appear to be a good permeabilizer | cell lysis in the absence of lysozyme occurred | 5- to 10 fold | less active | slightly lower affinities |  |  |  |  |  |  |  |  |  |
| CN(C)[C@@H]1C(O)=C(C(N)=O)C(=O)[C@@]2(O)C(O)=C3C(=O)c4c(O)cccc4[C@@](C)(O)[C@H]3C[C@@H]12 [Tetracycline] |  |  |  |  |  |  |  |  |  |  | 8 µg/mL | 4 µg/mL | 8 µg/mL | 8 µg/mL | 8 µg/mL | 8 µg/mL | 8 µg/mL |  |  |
| C[C@@H](O)[C@H]1C(=O)N2C(C(=O)O)=C(SCCN=CN)C[C@H]12 [Imipenem] |  |  |  |  |  |  |  |  |  |  | 4 µg/mL | 2 µg/mL | 4 µg/mL | 4 µg/mL | 4 µg/mL | 4 µg/mL | 4 µg/mL |  |  |
| CC(C)(O/N=C(\C(=O)N[C@@H]1C(=O)N2C(C(=O)[O-])=C(C[n+]3ccccc3)CS[C@H]12)c1csc(N)n1)C(=O)O [Ceftazidime, ceftazidime] |  |  | unchanged |  |  |  |  |  |  |  | 2 µg/mL | 2 µg/mL | 4 µg/mL | 4 µg/mL | 4 µg/mL | 2 µg/mL | 4 µg/mL | 2 µg/mL (≈ 3.66 µM) |  |
| polymyxin B | 0.5 µg/mL | 0.5 µg/mL | four-fold more sensitive | 2.04 ± 0.65 µM |  |  |  |  | equally active |  | 0.5 µg/mL | 0.12 µg/mL | 0.5 µg/mL | 0.25 µg/mL | 0.5 µg/mL | 0.06 µg/mL | 1 µg/mL |  | equally active |

— US5707855A (priority 1996, dated 1998)
